IC50 data for 27 compounds are collected here from patent US7846959B2, “Raf modulators and methods of use” (Exelixis, Inc., priority 2004, dated 2010).

One assay has as its target B-Raf (Homo sapiens, UniProt P15056). The assay is described as follows: Luciferase-coupled chemiluminescence kinase assay (ATP consumption), B-Raf. In kind it is biochemical. In short, it runs like this:
(§1)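 Enzyme ([…]) was pre-incubated with compound for 30 min at room temperature in 20 mM Tris pH 7.5, 10 mM MgCl2, 0.03% TX-100, 1 mM DTT. ATP was added and the reaction ran 3 h at ambient temperature. Remaining ATP was read by luciferase-luciferin chemiluminescence, giving IC50 values.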

The target in the next assay is c-Raf (Homo sapiens, UniProt P04049). Description: Luciferase-coupled chemiluminescence kinase assay (ATP consumption), c-Raf. In kind it is biochemical. Summed up:
as §1

[1] abbreviates: read-out: bRaf (inhibition indicated as IC50).
Setting [2] is: read-out: cRaf-1 (inhibition indicated as IC50).

Like-named read-outs stand apart in the source and are kept apart here.

B-Raf, sequence (P15056 whole entry): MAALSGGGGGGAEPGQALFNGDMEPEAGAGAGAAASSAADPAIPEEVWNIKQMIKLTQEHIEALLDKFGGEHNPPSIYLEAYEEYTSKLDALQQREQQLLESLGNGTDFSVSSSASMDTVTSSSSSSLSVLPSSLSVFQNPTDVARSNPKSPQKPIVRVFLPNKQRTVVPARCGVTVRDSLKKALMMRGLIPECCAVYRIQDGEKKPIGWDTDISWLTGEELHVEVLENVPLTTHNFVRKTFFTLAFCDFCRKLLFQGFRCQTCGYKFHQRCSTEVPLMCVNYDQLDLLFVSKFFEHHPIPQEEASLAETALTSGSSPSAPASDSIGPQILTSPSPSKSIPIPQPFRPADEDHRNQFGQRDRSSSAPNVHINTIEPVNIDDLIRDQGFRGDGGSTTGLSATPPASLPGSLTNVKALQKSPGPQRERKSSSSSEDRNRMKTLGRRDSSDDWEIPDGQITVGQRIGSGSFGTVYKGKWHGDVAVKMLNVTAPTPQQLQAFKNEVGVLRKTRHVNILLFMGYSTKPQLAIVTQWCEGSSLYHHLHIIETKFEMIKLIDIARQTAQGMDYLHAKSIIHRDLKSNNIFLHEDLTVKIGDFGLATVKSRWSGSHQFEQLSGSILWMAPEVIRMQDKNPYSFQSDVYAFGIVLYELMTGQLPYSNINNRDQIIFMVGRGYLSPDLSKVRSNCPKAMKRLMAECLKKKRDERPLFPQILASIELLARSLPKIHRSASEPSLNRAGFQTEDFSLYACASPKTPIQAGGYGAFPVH
c-Raf, sequence (P04049 whole entry): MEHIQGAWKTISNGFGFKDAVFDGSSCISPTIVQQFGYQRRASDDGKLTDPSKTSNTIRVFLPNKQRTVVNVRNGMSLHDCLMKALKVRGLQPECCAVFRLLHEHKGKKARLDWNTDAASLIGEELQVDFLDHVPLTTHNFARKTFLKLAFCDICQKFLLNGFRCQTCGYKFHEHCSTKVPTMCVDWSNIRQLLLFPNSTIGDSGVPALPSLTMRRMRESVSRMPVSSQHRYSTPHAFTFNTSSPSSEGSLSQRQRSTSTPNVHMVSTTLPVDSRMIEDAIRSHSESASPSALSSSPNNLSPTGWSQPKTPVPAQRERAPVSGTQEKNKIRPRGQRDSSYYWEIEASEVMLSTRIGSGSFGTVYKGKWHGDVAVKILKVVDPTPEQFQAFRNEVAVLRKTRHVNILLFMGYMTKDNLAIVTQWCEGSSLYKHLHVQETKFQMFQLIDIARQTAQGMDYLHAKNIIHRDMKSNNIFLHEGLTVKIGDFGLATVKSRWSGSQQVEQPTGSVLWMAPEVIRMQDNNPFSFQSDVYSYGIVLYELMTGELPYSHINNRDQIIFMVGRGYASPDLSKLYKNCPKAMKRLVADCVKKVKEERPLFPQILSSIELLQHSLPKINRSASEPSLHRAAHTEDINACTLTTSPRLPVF

One may read the IC50 as the concentration that inhibits the measured activity by half. Take `COC(=O)Nc1nc2cc(C3(O)c4ccccc4C(=O)N3c3cc(OC)ccc3F)ccc2[nH]1` (stereo not drawn) [Entry 381, methyl (5-{2-[2-fluoro-5-(methyloxy)phenyl]-1-hydroxy-3-oxo-2,3-dihydro-1H-isoindol-1-yl}-1H-benzimidazol-2-yl)carbamate]: the IC50 at B-Raf (setting [1]) and on c-Raf (setting [2]) was below 100 nM each time.
Regarding `COC(=O)Nc1nc2cc(C3(O)c4ccccc4C(=O)N3c3cccc(N)c3)ccc2[nH]1` (stereo not drawn) [Entry 261, methyl {5-[2-(3-aminophenyl)-1-hydroxy-3-oxo-2,3-dihydro-1H-isoindol-1-yl]-1H-benzimidazol-2-yl}carbamate], the IC50 on B-Raf (read-out: bRaf IC50) and on c-Raf (read-out: cRaf-1 IC50) was below 100 nM in each case.
Regarding `O=C(Nc1nc2cc(C3(O)c4ccccc4C(=O)N3Cc3ccccc3)ccc2[nH]1)N1CCCCC1` (stereo not drawn) [Entry 213, N-{5-[1-hydroxy-3-oxo-2-(phenylmethyl)-2,3-dihydro-1H-isoindol-1-yl]-1H-benzimidazol-2-yl}piperidine-1-carboxamide], the results for the IC50 at B-Raf (read-out: bRaf IC50) and on c-Raf (read-out: cRaf-1 IC50) were 1000 to 10000 nM and 100 to 1000 nM, respectively.
As to `CC(C)(CN1CCCCC1)C(=O)Nc1nc2ccc(C3(O)c4ccccc4C(=O)N3Cc3ccccc3)cc2[nH]1` (stereo not drawn) [Entry 286, N-{6-[1-hydroxy-3-oxo-2-(phenylmethyl)-2,3-dihydro-1H-isoindol-1-yl]-1H-benzimidazol-2-yl}-2,2-dimethyl-3-piperidin-1-ylpropanamide], the IC50 at B-Raf (setting [1]) and on c-Raf (setting [2]) was 1000 to 10000 nM in each case.
For the compound `C=Cc1cccc(N2C(=O)c3ccccc3C2(O)c2ccc3[nH]c(NC(=O)OC)nc3c2)c1F` (stereo not drawn) [Entry 366, methyl {5-[2-(3-ethenyl-2-fluorophenyl)-1-hydroxy-3-oxo-2,3-dihydro-1H-isoindol-1-yl]-1H-benzimidazol-2-yl}carbamate], the IC50 on B-Raf (setting [1]) and on c-Raf (setting [2]) was below 100 nM in each case.
As to `COC(=O)Nc1nc2ccc(C(=O)c3ccccc3NC(=O)c3ccccc3)cc2[nH]1` [Entry 289, methyl [6-({2-[(phenylcarbonyl)amino]phenyl}carbonyl)-1H-benzimidazol-2-yl]carbamate], the IC50 on B-Raf (setting [1]) and on c-Raf (setting [2]) was 1000 to 10000 nM throughout.
Turning to `COC(=O)Nc1nc2cc(C3(O)NC(=O)c4ccccc43)ccc2[nH]1` (stereo not drawn) [Entry 102, methyl [5-(1-hydroxy-3-oxo-2,3-dihydro-1H-isoindol-1-yl)-1H-benzimidazol-2-yl]carbamate], the IC50 on B-Raf (read-out: bRaf IC50) and on c-Raf (read-out: cRaf-1 IC50) was at least 10000 nM in each case.
With `COC(=O)Nc1nc2cc(C3(O)c4ccccc4C(=O)N3c3cccc(Cl)c3)ccc2[nH]1` (stereo not drawn) [Entry 135, methyl {5-[2-(3-chlorophenyl)-1-hydroxy-3-oxo-2,3-dihydro-1H-isoindol-1-yl]-1H-benzimidazol-2-yl}carbamate], the IC50 at B-Raf (read-out: bRaf IC50) and at c-Raf (read-out: cRaf-1 IC50) was below 100 nM throughout.
With `COC(=O)Nc1nc2cc(C3(O)c4ccccc4C(=O)N3C(C)c3cccc(Cl)c3)ccc2[nH]1` (stereo not drawn) [Entry 174, methyl (5-{2-[1-(3-chlorophenyl)ethyl]-1-hydroxy-3-oxo-2,3-dihydro-1H-isoindol-1-yl}-1H-benzimidazol-2-yl)carbamate], the IC50 on B-Raf (read-out: bRaf IC50) is below 100 nM; at c-Raf (read-out: cRaf-1 IC50) it was 100 to 1000 nM.
In the case of `COC(=O)Nc1nc2cc(C3(O)c4ccccc4C(=O)N3c3cccc(C(N)=O)c3)ccc2[nH]1` (stereo not drawn) [Entry 217, methyl (5-{2-[3-(aminocarbonyl)phenyl]-1-hydroxy-3-oxo-2,3-dihydro-1H-isoindol-1-yl}-1H-benzimidazol-2-yl)carbamate], the IC50 was below 100 nM on B-Raf (read-out: bRaf IC50) and 100 to 1000 nM at c-Raf (read-out: cRaf-1 IC50).
In the same order, the values of `COC(=O)Nc1nc2cc(C3(O)c4ccccc4C(=O)N3Cc3cccnc3)ccc2[nH]1` (stereo not drawn) [Entry 113, methyl {5-[1-hydroxy-3-oxo-2-(pyridin-3-ylmethyl)-2,3-dihydro-1H-isoindol-1-yl]-1H-benzimidazol-2-yl}carbamate] are 100 to 1000 nM and 100 to 1000 nM.
Take `O=C(Nc1nc2ccc(C3(O)c4ccccc4C(=O)N3c3cccc(Cl)c3F)cc2[nH]1)C1CC1(F)F` (stereo not drawn) [Entry 329, N-{6-[2-(3-chloro-2-fluorophenyl)-1-hydroxy-3-oxo-2,3-dihydro-1H-isoindol-1-yl]-1H-benzimidazol-2-yl}-2,2-difluorocyclopropanecarboxamide]: the IC50 at B-Raf (setting [1]) and at c-Raf (setting [2]) was below 100 nM each time.
With `O=C(Nc1nc2cc(C3(O)c4ccccc4C(=O)N3Cc3ccccc3)ccc2[nH]1)OCC(F)(F)F` (stereo not drawn) [Entry 196, 2,2,2-trifluoroethyl {5-[1-hydroxy-3-oxo-2-(phenylmethyl)-2,3-dihydro-1H-isoindol-1-yl]-1H-benzimidazol-2-yl}carbamate], the IC50 at B-Raf (read-out: bRaf IC50) and on c-Raf (read-out: cRaf-1 IC50) was below 100 nM in each case.
Turning to `O=C1COc2ccc(C3(O)c4ccccc4C(=O)N3Cc3ccccc3F)cc2N1` (stereo not drawn) [Entry 38, 6-{2-[(2-fluorophenyl)methyl]-1-hydroxy-3-oxo-2,3-dihydro-1H-isoindol-1-yl}-2H-1,4-benzoxazin-3(4H)-one], the figures for the IC50 on B-Raf (read-out: bRaf IC50) and on c-Raf (read-out: cRaf-1 IC50) were at least 10000 nM and 1000 to 10000 nM, respectively.
For `COC(=O)Nc1nc2cc(C3(O)c4ccccc4C(=O)N3CC3CCC3)ccc2[nH]1` (stereo not drawn) [Entry 207, methyl {5-[2-(cyclobutylmethyl)-1-hydroxy-3-oxo-2,3-dihydro-1H-isoindol-1-yl]-1H-benzimidazol-2-yl}carbamate], the IC50 at B-Raf (read-out: bRaf IC50) and on c-Raf (read-out: cRaf-1 IC50) was below 100 nM in each case.
With `COC(=O)Nc1nc2cc(C3(O)c4ccccc4C(=O)N3c3ccc(F)c(C)c3)ccc2[nH]1` (stereo not drawn) [Entry 227, methyl {5-[2-(4-fluoro-3-methylphenyl)-1-hydroxy-3-oxo-2,3-dihydro-1H-isoindol-1-yl]-1H-benzimidazol-2-yl}carbamate], the IC50 on B-Raf (read-out: bRaf IC50) and on c-Raf (read-out: cRaf-1 IC50) was below 100 nM throughout.
`O=C(CCCN1CCCC1)Nc1nc2cc(C3(O)c4ccccc4C(=O)N3Cc3ccccc3)ccc2[nH]1` (stereo not drawn) [Entry 278, N-{5-[1-hydroxy-3-oxo-2-(phenylmethyl)-2,3-dihydro-1H-isoindol-1-yl]-1H-benzimidazol-2-yl}-4-pyrrolidin-1-ylbutanamide]: the IC50 at B-Raf (setting [1]) and on c-Raf (setting [2]) was below 100 nM in each case.
As for `O=C1COc2ccc(C3(O)c4ccccc4C(=O)N3Cc3cccc(OC(F)(F)F)c3)cc2N1` (stereo not drawn) [Entry 56, 6-[1-hydroxy-3-oxo-2-({3-[(trifluoromethyl)oxy]phenyl}methyl)-2,3-dihydro-1H-isoindol-1-yl]-2H-1,4-benzoxazin-3(4H)-one], the IC50 on B-Raf (read-out: bRaf IC50) and on c-Raf (read-out: cRaf-1 IC50) was at least 10000 nM in each case.
Regarding `COC(=O)Nc1nc2ccc(C(=O)c3ccccc3C(=O)NCc3cccs3)cc2[nH]1` [Entry 392, methyl {6-[(2-{[(2-thienylmethyl)amino]carbonyl}phenyl)carbonyl]-1H-benzimidazol-2-yl}carbamate], the IC50 at B-Raf (setting [1]) and on c-Raf (setting [2]) was below 100 nM each time.
Consider `CC(C)(CO)COC(=O)Nc1nc2cc(C3(O)c4ccccc4C(=O)N3Cc3ccccc3)ccc2[nH]1` (stereo not drawn) [Entry 248, 3-hydroxy-2,2-dimethylpropyl {5-[1-hydroxy-3-oxo-2-(phenylmethyl)-2,3-dihydro-1H-isoindol-1-yl]-1H-benzimidazol-2-yl}carbamate], for which the IC50 on B-Raf (read-out: bRaf IC50) and on c-Raf (read-out: cRaf-1 IC50) was 100 to 1000 nM in each case.
In the case of `COC(=O)Nc1nc2cc(C3(O)c4ccccc4C(=O)N3c3cc(OC)ccc3C)ccc2[nH]1` (stereo not drawn) [Entry 368, methyl (5-{1-hydroxy-2-[2-methyl-5-(methyloxy)phenyl]-3-oxo-2,3-dihydro-1H-isoindol-1-yl}-1H-benzimidazol-2-yl)carbamate], the IC50 at B-Raf (setting [1]) and on c-Raf (setting [2]) was below 100 nM throughout.
On to `COC(=O)Nc1nc2cc(C3(O)c4ccccc4C(=O)N3Cc3ccccn3)ccc2[nH]1` (stereo not drawn) [Entry 124, methyl {5-[1-hydroxy-3-oxo-2-(pyridin-2-ylmethyl)-2,3-dihydro-1H-isoindol-1-yl]-1H-benzimidazol-2-yl}carbamate], for which the IC50 on B-Raf (read-out: bRaf IC50) and on c-Raf (read-out: cRaf-1 IC50) was 100 to 1000 nM throughout.
As for `O=C1c2ccccc2C(O)(c2ccc3[nH]ncc3c2)N1Cc1ccccc1` (stereo not drawn) [Entry 94, 3-hydroxy-3-(1H-indazol-5-yl)-2-(phenylmethyl)-2,3-dihydro-1H-isoindol-1-one], the IC50 at B-Raf (read-out: bRaf IC50) and at c-Raf (read-out: cRaf-1 IC50) was 100 to 1000 nM each time.
In the case of `COC(=O)Nc1nc2cc(C3(O)c4ccccc4C(=O)N3CC(C)(C)C)ccc2[nH]1` (stereo not drawn) [Entry 154, methyl {5-[2-(2,2-dimethylpropyl)-1-hydroxy-3-oxo-2,3-dihydro-1H-isoindol-1-yl]-1H-benzimidazol-2-yl}carbamate], the IC50 on B-Raf (read-out: bRaf IC50) and at c-Raf (read-out: cRaf-1 IC50) was 1000 to 10000 nM in each case.
As for `CC(C)(COCc1ccccc1)COC(=O)Nc1nc2cc(C3(O)c4ccccc4C(=O)N3Cc3ccccc3)ccc2[nH]1` (stereo not drawn) [Entry 223, 2,2-dimethyl-3-[(phenylmethyl)oxy]propyl {5-[1-hydroxy-3-oxo-2-(phenylmethyl)-2,3-dihydro-1H-isoindol-1-yl]-1H-benzimidazol-2-yl}carbamate], the values for the IC50 on B-Raf (read-out: bRaf IC50) and on c-Raf (read-out: cRaf-1 IC50) were 100 to 1000 nM and below 100 nM, respectively.
For the compound `COC(=O)Nc1nc2cc(C3(O)c4ccccc4C(=O)N3c3cccc(Nc4ccccc4)c3)ccc2[nH]1` (stereo not drawn) [Entry 243, methyl (5-{1-hydroxy-3-oxo-2-[3-(phenylamino)phenyl]-2,3-dihydro-1H-isoindol-1-yl}-1H-benzimidazol-2-yl)carbamate], the IC50 at B-Raf (read-out: bRaf IC50) and on c-Raf (read-out: cRaf-1 IC50) was 100 to 1000 nM in each case.
`O=C(Nc1nc2ccc(C3(O)c4ccccc4C(=O)N3c3cccc(Cl)c3F)cc2[nH]1)OCC(F)F` (stereo not drawn) [Entry 331, 2,2-difluoroethyl {6-[2-(3-chloro-2-fluorophenyl)-1-hydroxy-3-oxo-2,3-dihydro-1H-isoindol-1-yl]-1H-benzimidazol-2-yl}carbamate]: the IC50 at B-Raf (setting [1]) and at c-Raf (setting [2]) was below 100 nM throughout.
